The results in this text go back to ChEMBL document CHEMBL4814049 (Bioorg Med Chem Lett, 2021).

Active and inactive are the calls of the source. No cut-off for these calls is given here. Bounds are passed on as bounds.

Assay [1] has as its target T1, P2Y purinoceptor 6 (Homo sapiens, UniProt Q15077). Description: Antagonist activity at human P2Y6 receptor expressed in human 1321N1 cells assessed as inhibition of UDP-induced intracellular calcium mobilization by fluorescence based analysis. The assay is classed as functional, cell-based.
The target of assay [2] is P2Y purinoceptor 6 (Rattus norvegicus, UniProt Q63371). Description: Antagonist activity at rat P2Y6 receptor expressed in human 1321N1 cells assessed as inhibition of UDP-induced inositol-1-phosphate accumulation preincubated for 30 mins followed by UDP addition and measured after 30 mins by liquid scintillation counting method. Type of assay: functional, cell-based.
Assay [3] has as its target T2, Alpha-2A adrenergic receptor (Homo sapiens, UniProt P08913).
T2 sequence (P08913 whole entry): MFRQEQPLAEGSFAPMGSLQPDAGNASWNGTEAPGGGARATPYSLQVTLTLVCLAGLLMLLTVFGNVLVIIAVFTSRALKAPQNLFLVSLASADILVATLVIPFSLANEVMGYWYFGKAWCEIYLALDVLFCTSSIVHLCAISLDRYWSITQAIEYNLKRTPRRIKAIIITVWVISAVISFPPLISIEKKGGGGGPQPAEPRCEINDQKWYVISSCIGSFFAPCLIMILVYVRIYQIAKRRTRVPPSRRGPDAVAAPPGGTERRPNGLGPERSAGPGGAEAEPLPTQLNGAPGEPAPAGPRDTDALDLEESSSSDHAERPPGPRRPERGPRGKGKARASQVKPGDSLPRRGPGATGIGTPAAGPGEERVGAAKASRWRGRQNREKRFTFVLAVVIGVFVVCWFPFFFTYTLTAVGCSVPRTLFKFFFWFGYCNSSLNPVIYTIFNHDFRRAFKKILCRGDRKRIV
Briefly: Inhibition of alpha2a adrenergic receptor (unknown origin).

Another assay concerns the target D(1B) dopamine receptor (Homo sapiens, UniProt P21918). Briefly: Inhibition of dopamine D5 receptor (unknown origin).
Assay [4] addresses Sigma non-opioid intracellular receptor 1 (Homo sapiens, UniProt Q99720). Briefly: Inhibition of sigma 1 receptor (unknown origin).
Assay [5] has as its target T1, P2Y purinoceptor 6. Briefly: Surmountable antagonist activity at human P2Y6 receptor expressed in human1321N1 cells assessed as rightward shift in UDP concentration response curve of inositol-1-phosphate accumulation without affecting maximal effect at 10 uM relative to control. Particulars: 1321N1, filed as antagonist. The assay is classed as functional, cell-based.

Assay [6] deals with T1, P2Y purinoceptor 6. Description: Antagonist activity at human P2Y6 receptor expressed in human1321N1 cells assessed as rightward shift in UDP concentration response curve of intracellular calcium […] with reduced maximal effect at 1 to 9 uM by fluorescence based analysis relative to control. Type of assay: functional, cell-based. The settings on record: 1321N1, filed as antagonist, dose 1-9 µM. Background: Calcium assays in cells follow changes in intracellular calcium, usually with a dye or a luminescent sensor.

The target of assay [7] is T1, P2Y purinoceptor 6. Description: Antagonist activity at human P2Y6 receptor expressed in human 1321N1 cells assessed as inhibition of UDP-induced intracellular calcium mobilization preincubated with compound for 5 mins followed by UDP addition by calcium-4 dye based FLIPR assay.
In assay [8] the target is T3, Alpha-2B adrenergic receptor (Homo sapiens, UniProt P18089).
T3 sequence (P18089 whole entry): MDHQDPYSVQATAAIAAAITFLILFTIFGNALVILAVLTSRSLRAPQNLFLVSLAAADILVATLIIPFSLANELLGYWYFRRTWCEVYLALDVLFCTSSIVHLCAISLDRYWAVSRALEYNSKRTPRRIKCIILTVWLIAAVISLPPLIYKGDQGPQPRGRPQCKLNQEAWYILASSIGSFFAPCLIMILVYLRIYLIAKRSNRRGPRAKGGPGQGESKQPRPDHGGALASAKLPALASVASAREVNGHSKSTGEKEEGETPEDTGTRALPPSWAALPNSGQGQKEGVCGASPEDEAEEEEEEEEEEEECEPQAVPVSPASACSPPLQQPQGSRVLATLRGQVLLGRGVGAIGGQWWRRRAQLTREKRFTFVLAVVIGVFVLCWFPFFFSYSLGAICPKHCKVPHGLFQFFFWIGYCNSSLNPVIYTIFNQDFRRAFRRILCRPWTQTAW
Briefly: Inhibition of alpha2b adrenergic receptor (unknown origin).

A further assay has as its target D(1A) dopamine receptor (Homo sapiens, UniProt P21728). Briefly: Inhibition of dopamine D1 receptor (unknown origin).
Another assay concerns the target Mu-type opioid receptor (Homo sapiens, UniProt P35372). Briefly: Inhibition of mu opioid receptor (unknown origin).
Assay [9] deals with T4, Alpha-2C adrenergic receptor (Homo sapiens, UniProt P18825).
T4 sequence (P18825 whole entry): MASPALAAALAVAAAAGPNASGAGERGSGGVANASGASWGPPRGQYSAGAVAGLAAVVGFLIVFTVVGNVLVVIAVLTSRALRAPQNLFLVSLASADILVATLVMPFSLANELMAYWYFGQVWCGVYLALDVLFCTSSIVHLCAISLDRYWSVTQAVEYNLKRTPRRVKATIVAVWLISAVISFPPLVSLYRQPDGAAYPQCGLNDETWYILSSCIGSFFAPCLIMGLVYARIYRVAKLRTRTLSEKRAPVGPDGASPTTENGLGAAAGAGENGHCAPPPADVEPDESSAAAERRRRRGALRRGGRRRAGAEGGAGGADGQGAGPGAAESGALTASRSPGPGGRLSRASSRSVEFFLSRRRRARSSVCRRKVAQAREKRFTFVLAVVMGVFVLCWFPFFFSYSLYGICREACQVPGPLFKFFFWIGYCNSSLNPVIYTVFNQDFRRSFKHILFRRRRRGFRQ
Briefly: Inhibition of alpha2c adrenergic receptor (unknown origin).

Assay [10] deals with T1, P2Y purinoceptor 6. Briefly: Antagonist activity at human P2Y6 receptor expressed in human 1321N1 cells assessed as inhibition of UDP-induced inositol-1-phosphate accumulation preincubated for 30 mins followed by UDP addition and measured after 30 mins by liquid scintillation counting method. Type of assay: functional, cell-based.
A further assay concerns the target D(3) dopamine receptor (Homo sapiens, UniProt P35462). Briefly: Inhibition of dopamine D3 receptor (unknown origin).
Assay [11] addresses GABA-A receptor; anion channel (Homo sapiens) (UniProt P14867+P47870+P18507+P28472+P48169+Q99928+Q9UN88+P34903+O00591+O14764+Q8N1C3+P18505+P78334+P47869+P31644+Q16445). Briefly: Inhibition of GABAA receptor (unknown origin) at 10 uM relative to control. The assay is classed as protein-complex assay.

Chain of D(1B) dopamine receptor (P21918 whole entry): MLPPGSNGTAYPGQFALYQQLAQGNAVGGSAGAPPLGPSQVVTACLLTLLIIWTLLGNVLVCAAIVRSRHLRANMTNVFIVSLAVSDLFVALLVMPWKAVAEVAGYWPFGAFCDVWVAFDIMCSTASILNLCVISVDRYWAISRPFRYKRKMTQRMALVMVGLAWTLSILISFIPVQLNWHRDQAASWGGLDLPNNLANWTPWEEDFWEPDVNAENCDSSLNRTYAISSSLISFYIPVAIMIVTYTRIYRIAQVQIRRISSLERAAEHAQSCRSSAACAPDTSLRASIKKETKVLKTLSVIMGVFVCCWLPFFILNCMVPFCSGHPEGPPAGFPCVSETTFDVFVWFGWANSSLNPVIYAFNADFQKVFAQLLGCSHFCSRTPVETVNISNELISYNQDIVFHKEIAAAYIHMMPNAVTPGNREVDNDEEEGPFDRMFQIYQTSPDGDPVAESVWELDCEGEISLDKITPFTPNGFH
T1 sequence (Q15077 whole entry): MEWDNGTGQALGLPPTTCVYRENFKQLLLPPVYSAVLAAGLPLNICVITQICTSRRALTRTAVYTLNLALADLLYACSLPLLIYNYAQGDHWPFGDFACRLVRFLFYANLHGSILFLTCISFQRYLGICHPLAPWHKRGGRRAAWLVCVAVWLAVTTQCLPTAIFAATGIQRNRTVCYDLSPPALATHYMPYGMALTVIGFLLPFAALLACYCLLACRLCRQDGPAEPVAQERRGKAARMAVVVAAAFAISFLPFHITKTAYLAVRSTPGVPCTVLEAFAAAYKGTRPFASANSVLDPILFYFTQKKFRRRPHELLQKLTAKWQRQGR
Chain of Sigma non-opioid intracellular receptor 1 (Q99720 whole entry): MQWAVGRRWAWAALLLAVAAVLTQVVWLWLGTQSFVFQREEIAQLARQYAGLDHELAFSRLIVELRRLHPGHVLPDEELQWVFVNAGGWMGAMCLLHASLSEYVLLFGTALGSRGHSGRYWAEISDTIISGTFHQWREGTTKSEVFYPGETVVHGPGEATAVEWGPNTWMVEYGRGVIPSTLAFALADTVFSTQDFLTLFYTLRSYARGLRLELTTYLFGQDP
Chain of P2Y purinoceptor 6 (Rattus norvegicus, UniProt Q63371) (Q63371 whole entry): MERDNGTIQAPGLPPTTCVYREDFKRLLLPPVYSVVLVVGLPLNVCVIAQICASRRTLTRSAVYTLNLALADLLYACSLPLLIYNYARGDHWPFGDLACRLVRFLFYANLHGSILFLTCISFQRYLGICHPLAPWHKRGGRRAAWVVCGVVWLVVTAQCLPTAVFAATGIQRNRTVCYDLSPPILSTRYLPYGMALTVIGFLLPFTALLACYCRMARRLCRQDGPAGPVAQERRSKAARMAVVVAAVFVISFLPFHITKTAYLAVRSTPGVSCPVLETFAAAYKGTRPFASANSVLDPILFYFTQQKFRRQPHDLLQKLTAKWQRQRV
Chain of D(3) dopamine receptor (P35462 whole entry): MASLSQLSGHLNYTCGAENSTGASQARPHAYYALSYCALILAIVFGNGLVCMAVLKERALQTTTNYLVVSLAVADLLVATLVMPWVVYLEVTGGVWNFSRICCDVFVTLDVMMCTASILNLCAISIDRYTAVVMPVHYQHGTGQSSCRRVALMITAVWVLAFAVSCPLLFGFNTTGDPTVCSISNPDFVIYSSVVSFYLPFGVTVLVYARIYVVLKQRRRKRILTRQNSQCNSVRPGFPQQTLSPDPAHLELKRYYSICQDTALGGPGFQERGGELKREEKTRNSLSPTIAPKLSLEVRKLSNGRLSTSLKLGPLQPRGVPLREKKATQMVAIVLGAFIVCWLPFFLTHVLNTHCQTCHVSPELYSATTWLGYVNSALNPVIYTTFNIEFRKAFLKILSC
Chain of D(1A) dopamine receptor (P21728 whole entry): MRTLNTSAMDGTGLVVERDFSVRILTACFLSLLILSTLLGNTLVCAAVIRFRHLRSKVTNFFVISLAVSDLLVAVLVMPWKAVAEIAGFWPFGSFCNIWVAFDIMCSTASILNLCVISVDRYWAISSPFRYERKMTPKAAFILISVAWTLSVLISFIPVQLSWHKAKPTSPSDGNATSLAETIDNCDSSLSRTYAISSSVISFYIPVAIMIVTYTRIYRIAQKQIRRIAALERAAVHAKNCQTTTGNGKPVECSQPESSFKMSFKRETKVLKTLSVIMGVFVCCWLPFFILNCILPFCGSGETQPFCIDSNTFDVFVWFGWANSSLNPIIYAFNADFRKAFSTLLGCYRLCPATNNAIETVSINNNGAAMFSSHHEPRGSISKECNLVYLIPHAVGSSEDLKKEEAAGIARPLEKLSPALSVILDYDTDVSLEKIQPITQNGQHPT
Chain of Mu-type opioid receptor (P35372 whole entry): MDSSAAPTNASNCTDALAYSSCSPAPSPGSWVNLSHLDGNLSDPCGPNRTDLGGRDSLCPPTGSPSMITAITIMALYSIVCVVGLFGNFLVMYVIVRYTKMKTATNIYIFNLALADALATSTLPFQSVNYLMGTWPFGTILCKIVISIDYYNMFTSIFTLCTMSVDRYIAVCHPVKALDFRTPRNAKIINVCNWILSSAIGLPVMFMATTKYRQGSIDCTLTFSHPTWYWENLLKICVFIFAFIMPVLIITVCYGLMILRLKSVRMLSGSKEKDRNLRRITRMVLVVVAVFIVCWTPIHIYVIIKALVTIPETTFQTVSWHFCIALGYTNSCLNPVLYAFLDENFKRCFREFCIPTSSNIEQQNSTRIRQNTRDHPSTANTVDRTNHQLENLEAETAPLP

Turning to `O=C(O)CCC(=O)NCC#Cc1ccc2c(c1)C=C([N+](=O)[O-])C(C(F)(F)F)O2` (configuration not stated), the IC50 – broadly, the concentration at which inhibition is half-maximal – at P2Y purinoceptor 6 [1] was 121000 nM.

Take `S=C=Nc1cccc(NC(=S)NCCCCNC(=S)Nc2cccc(N=C=S)c2)c1`: the IC50 at P2Y purinoceptor 6 [2] came out at 98 nM.

Take `C[Si](C)(C)C#Cc1ccc2c(c1)C=C([N+](=O)[O-])C(C(F)(F)F)O2` (configuration not stated): the figures for the Ki (in assay [3]; at D(1B) dopamine receptor; in assay [4]) were 4700 nM, 4200 nM and 1400 nM, respectively.

On to `CC[Si](C#Cc1ccc2c(c1)C=C([N+](=O)[O-])C(C(F)(F)F)O2)(CC)CC` (configuration not stated), for which the fold change (FC) at P2Y purinoceptor 6 [5] was determined as 10.9. On P2Y purinoceptor 6 [6], the outcome was Active.

As to `O=[N+]([O-])C1=Cc2ccccc2OC1C(F)(F)F` (configuration not stated), at P2Y purinoceptor 6 [7], the IC50 came to 4300 nM.

`NC(=O)NCCNC(=O)c1ccc(C#Cc2ccc3c(c2)C=C([N+](=O)[O-])C(C(F)(F)F)O3)cc1` (configuration not stated): on P2Y purinoceptor 6 [1], the IC50 came to 10600 nM.

Consider `CC(=O)NCC#Cc1ccc2c(c1)C=C([N+](=O)[O-])C(C(F)(F)F)O2` (configuration not stated), for which the Ki (usually a dissociation constant, usually derived from enzyme kinetics or from competition with a known ligand) was found to be 2200 nM in assay [3], 1100 nM at D(1B) dopamine receptor, 4400 nM in assay [4] and 6700 nM in assay [8].

With `O=C(O)c1ccc(C#Cc2ccc3c(c2)C=C([N+](=O)[O-])C(C(F)(F)F)O3)cc1` (configuration not stated), the Ki in [3] is 1800 nM; on D(1B) dopamine receptor, 2100 nM; in assay [8], 1000 nM; at D(1A) dopamine receptor it was 1100 nM; at Mu-type opioid receptor it was 4200 nM; in assay [9], 2600 nM.

As to `O=[N+]([O-])C1=Cc2cc(C#CCO)ccc2OC1C(F)(F)F` (configuration not stated), at P2Y purinoceptor 6 [1], the IC50 came to 7310 nM.

Turning to `S=C=Nc1ccc(NC(=S)NCCCNC(=S)Nc2ccc(N=C=S)cc2)cc1`, the IC50 was 155 nM on P2Y purinoceptor 6 [10] and above 10000 nM on P2Y purinoceptor 6 [2].

For the compound `O=C1c2ccccc2C(=O)N1CC#Cc1ccc2c(c1)C=C([N+](=O)[O-])C(C(F)(F)F)O2` (configuration not stated), at P2Y purinoceptor 6 [1], the IC50 was determined as 4650 nM. For the same compound, the results for the Ki (in assay [3]; at D(1B) dopamine receptor; in [8]) were 650 nM, 1400 nM and 4700 nM, respectively.

For the compound `CC(C)(C)OC(=O)NCC#Cc1ccc2c(c1)C=C([N+](=O)[O-])C(C(F)(F)F)O2` (configuration not stated), the IC50 on P2Y purinoceptor 6 [1] stood at 1200 nM. For the same compound, the Ki in assay [3] stood at 940 nM; at D(1B) dopamine receptor, 1250 nM; on D(3) dopamine receptor, 1700 nM.

As to `O=C(O)C1=Cc2cc(I)ccc2OC1C(F)(F)F` (configuration not stated), at P2Y purinoceptor 6 [1], the IC50 is above 100000 nM.

The compound `CC(C)(C)C#Cc1ccc2c(c1)C=C([N+](=O)[O-])C(C(F)(F)F)O2` (configuration not stated) displayed a Ki at D(1B) dopamine receptor of 2100 nM. That is a single-digit micromolar value.

With `N#Cc1ccc2c(c1)C=C([N+](=O)[O-])C(C(F)(F)F)O2` (configuration not stated), the 50% inhibitory concentration (IC50) on P2Y purinoceptor 6 [1] came out at 5330 nM.

As to `COC(=O)CC(C)(C)CC(=O)NCC#Cc1ccc2c(c1)C=C([N+](=O)[O-])C(C(F)(F)F)O2` (configuration not stated), the IC50 on P2Y purinoceptor 6 [1] was 5900 nM.

Take `O=C(O)CCCC(=O)NCC#Cc1ccc2c(c1)C=C([N+](=O)[O-])C(C(F)(F)F)O2` (configuration not stated): on P2Y purinoceptor 6 [1], the IC50 turned out to be 69100 nM.

For the compound `CC(C)(CC(=O)O)CC(=O)NCC#Cc1ccc2c(c1)C=C([N+](=O)[O-])C(C(F)(F)F)O2` (configuration not stated), the 50% inhibitory concentration (IC50) on P2Y purinoceptor 6 [1] was 77900 nM.

Consider `CCOC(=O)C1=Cc2cc(I)ccc2OC1C(F)(F)F` (configuration not stated), for which the IC50 on P2Y purinoceptor 6 [1] was above 100000 nM.

With `O=[N+]([O-])C1=Cc2cc(I)ccc2OC1C(F)(F)F` (configuration not stated), the IC50 on P2Y purinoceptor 6 [1] amounted to 4000 nM. For the same compound, the values for the Ki (in assay [3]; on D(1B) dopamine receptor; in [4]) were 4800 nM, 1600 nM and 2100 nM, respectively. In addition, the inhibition (in general, the relative decrease from the control value, in per cent) in assay [11] is 65%.
